# Measured values from US9051295B2, “1-substituted indazole derivative” (Dainippon Sumitomo Pharma Co., Ltd., priority 2012, dated 2015).
# Biological target: T1, human α7 nAChR (Homo sapiens, UniProt P36544)
# T1 construct: expressed in transfected cells; host or cells: GH4C1 cells (rat pituitary, ATCC CCL-82.2)
# Test: Evaluation of PAM activity with human α7 nACh receptor stably expressing cells (aequorin luminescence, FDSS7000, ACh EC20)
# Type: cell-based
# Settings: statement on Table 8 data
# Description: Evaluation of PAM Activity with Human α7 nACh Receptor Stably Expressing Cells
# (1) Human α7 nAChR Stably Expressing Cells
# Human α7 nAChR stably expressing cells were generated and cultured. In detail, GH4C1 cells derived from rat pituitary (cat#CCL-82.2, ATCC, USA) were used as a host cell. PcDNA3.1Zeo vector containing a nucleotide sequence encoding a protein GenBank BAC81731 and pcDNA3.1 vector containing human α7 nAChR gene (cat#V790-20, invitrogen, Carlsbad, Calif., USA) were transfected to the cells to give aequorins and human α7 nAChR stably expressing cells respectively. The aequorins and human α7 nAChR stably expressing cells were screened with Zeocin (cat#R25001, invitrogen, Carlsbad, Calif., USA) and Geneticin (cat#10131-027, invitrogen, Carlsbad, Calif., USA) respectively.
# The cells were cultured in F-10 Nutrient Mixture (Ham) medium (cat#11550-043, invitrogen, Carlsbad, Calif., USA) containing 2.5% fetal bovine serum (cat#2917354, ICN Biomedicals, Inc, USA), 15% inactivated horse serum (cat#26050-088, invitrogen, Carlsbad, Calif., USA), 1 μg/mL Geneticin, and 5 μg/mL Puromycin (cat#14861-84, invitrogen, Carlsbad, Calif., USA), in a Collagen Type 1-coated dish (cat#4030-010, iwaki, Tokyo, Japan). During the culture, the medium was replaced with fresh medium in every 2 to 3 days, and the cells were treated with TrypLE Express (cat#45604-021, invitrogen, Carlsbad, Calif., USA) to collect them in every 7 days. Thus, the cells were subcultured.
# 7 Days after subculturing, the cells were treated with TrypLE Express to collect them when they were about 80% confluent. The cells were suspended in a reaction medium containing Hanks (cat#14065-056, invitrogen, Carlsbad, Calif., USA)/20 mmol/L Hepes (cat#15630-080, invitrogen, Carlsbad, Calif., USA), Buffer (pH 7.4), F-10 Nutrient Mixture (Ham), and 0.1 mg/mL Geneticin, and the suspension was seeded in a 384-well plate (cat#781090, Greiner, Germany) at 20000 cells/25 μL per well.
# On the next day after seeding, Viviren (cat#E649X, Promega, Madison, Wis., USA) was added to the medium so that the final concentration could be 4 μmol/L (15 μL/well). The plates were centrifuged and then placed in the dark for 4 hours at room temperature.
# (2) Preparation of the Test Samples
# Each of the test compounds was dissolved in DMSO to prepare each test sample at a concentration of 1000-fold the final concentration. To the solution was added Hanks/20 mM HEPES/0.2% BSA (cat#A3803, Sigma, St. Louis, Mo., USA), and the concentration was adjusted to 6-fold the final concentration.
# (3) Evaluation of PAM Activity
# FDSS7000 (Hamamatsu Photonics) was used to detect the luminescence signal evoked by α7 nAChR stimulation. The cells and a luminescent substrate were put on a plate, and the test sample was added thereto. […] After the addition of ACh, the luminescence signal (the central wavelength: 465 nm) was measured for 138 seconds to calculate RLU (Max-Min). The ratio of the RLU (Max-Min) of the test-compound-containing wells to that of the control wells was defined as PAM activity.
# T1 sequence (P36544 23-502): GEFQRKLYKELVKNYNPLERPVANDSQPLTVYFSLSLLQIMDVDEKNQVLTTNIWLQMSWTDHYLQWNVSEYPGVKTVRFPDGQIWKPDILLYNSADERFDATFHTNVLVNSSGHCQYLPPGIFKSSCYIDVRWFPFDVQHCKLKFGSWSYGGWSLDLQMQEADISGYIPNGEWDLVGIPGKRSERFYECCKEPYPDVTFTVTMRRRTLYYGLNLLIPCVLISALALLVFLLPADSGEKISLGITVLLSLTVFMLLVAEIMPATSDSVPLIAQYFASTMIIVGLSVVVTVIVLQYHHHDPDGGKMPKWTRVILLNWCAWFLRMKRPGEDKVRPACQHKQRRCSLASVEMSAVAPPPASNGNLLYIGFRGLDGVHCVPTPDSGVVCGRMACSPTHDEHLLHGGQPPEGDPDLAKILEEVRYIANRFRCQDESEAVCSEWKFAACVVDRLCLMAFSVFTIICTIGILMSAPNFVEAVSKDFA
row,Structure (SMILES),PAM activity for α7 nAChR (in words)
1,"CCc1ccc2c(cnn2[C@H]2CC[C@@H](NC(=O)C3CCC(F)(F)CC3)CC2)c1 [Example 4, N-(cis-4-(5-ethyl-1H-indazol-1-yl)cyclohexyl)-4,4-difluorocyclohexanecarboxamide]",stronger PAM activity than others
2,"Cc1ccc2c(cnn2C2CCN(C(=O)NC3CCCCC3)CC2)c1 [Example 8, N-cyclohexyl-4-(5-methyl-1H-indazol-1-yl)piperidine-1-carboxamide]",stronger PAM activity than others
3,"Cc1ccc2c(cnn2C2CCN(C(=O)NC3CCC(F)(F)CC3)CC2)c1 [Example 13, N-(4,4-difluorocyclohexyl)-4-(5-methyl-1H-indazol-1-yl)piperidine-1-carboxamide]",stronger PAM activity than others
4,CCOc1ccc2c(cnn2C2CCN(C(=O)NC3CCCC3)CC2)c1 [Example 17],stronger PAM activity than others
5,"CCOc1ccc2c(cnn2C2CCN(C(=O)NC3CCCCC3)CC2)c1 [Example 18, N-cyclohexyl-4-(5-ethoxy-1H-indazol-1-yl)piperidine-1-carboxamide]",stronger PAM activity than others
6,CCc1ccc2c(cnn2C2CCN(C(=O)NC3CCCC3)CC2)c1 [Example 20],stronger PAM activity than others
7,CCc1ccc2c(cnn2C2CCN(C(=O)NC3CCC(F)(F)CC3)CC2)c1 [Example 23],stronger PAM activity than others
8,COc1ccc2c(cnn2C2CCN(C(=O)NC3CCCCC3)CC2)c1 [Example 40],stronger PAM activity than others
9,"COc1ccc2c(cnn2C2CCN(C(=O)NC3CCC(F)(F)CC3)CC2)c1 [Example 41, N-(4,4-difluorocyclohexyl)-4-(5-methoxy-1H-indazol-1-yl)piperidine-1-carboxamide]",stronger PAM activity than others
10,CCc1ccc2c(cnn2[C@H]2CC[C@@H](NC(=O)C3CCCCC3)CC2)c1 [Example 119],stronger PAM activity than others
11,COCC1CCC(NC(=O)N2CCC(n3ncc4cc(C)ccc43)CC2)CC1 (stereo not drawn) [Example 220],stronger PAM activity than others

# Same assay, conditions: test compound 10 μmol/L; ACh at EC20; ratio of RLU (Max-Min) of test-compound wells to control wells
row,Structure (SMILES),α7PAM (%) @ 10 μmol/L
1,"CCc1ccc2c(cnn2[C@H]2CC[C@@H](NC(=O)C3CCC(F)(F)CC3)CC2)c1 [Example 4, N-(cis-4-(5-ethyl-1H-indazol-1-yl)cyclohexyl)-4,4-difluorocyclohexanecarboxamide]",2344%
2,"CCc1ccc2c(cnn2[C@H]2CC[C@@H](NC(=O)NC3CCC(F)(F)CC3)CC2)c1 [Example 5, 1-(4,4-difluorocyclohexyl)-3-(cis-4-(5-ethyl-1H-indazol-1-yl)cyclohexyl)urea]",1368%
3,"Cc1ccc2c(cnn2C2CCN(C(=O)NC3CCCCC3)CC2)c1 [Example 8, N-cyclohexyl-4-(5-methyl-1H-indazol-1-yl)piperidine-1-carboxamide]",3053%
4,"Cc1ccc2c(cnn2C2CCN(C(=O)NC3CCC(F)(F)CC3)CC2)c1 [Example 13, N-(4,4-difluorocyclohexyl)-4-(5-methyl-1H-indazol-1-yl)piperidine-1-carboxamide]",3399%
5,"CCCc1ccc2c(cnn2C2CCN(C(=O)NC3CCOCC3)CC2)c1 [Example 15, 4-(5-propyl-1H-indazol-1-yl)-N-(tetrahydro-2H-pyran-4-yl)piperidine-1-carboxamide]",1025%
6,"CCc1ccc2c(cnn2C2CCN(C(=O)N[C@H]3CC[C@H](OC)CC3)CC2)c1 [Example 16, 4-(5-ethyl-1H-indazol-1-yl)-N-(trans-4-methoxycyclohexyl)piperidine-1-carboxamide]",1764%
7,"CCOc1ccc2c(cnn2C2CCN(C(=O)NC3CCCCC3)CC2)c1 [Example 18, N-cyclohexyl-4-(5-ethoxy-1H-indazol-1-yl)piperidine-1-carboxamide]",6779%
8,"CCc1ccc2c(cnn2C2CCN(C(=O)NC3CCCOC3)CC2)c1 (stereo not drawn) [Example 22, 4-(5-ethyl-1H-indazol-1-yl)-N-(tetrahydro-2H-pyran-3-yl)piperidine-1-carboxamide]",1425%
9,CCc1ccc2c(cnn2C2CCN(C(=O)NC3CCC(F)(F)CC3)CC2)c1 [Example 23],6196%
10,"CCOc1ccc2c(cnn2C2CCN(C(=O)NC3CCC(F)(F)CC3)CC2)c1 [Example 27, N-(4,4-difluorocyclohexyl)-4-(5-ethoxy-1H-indazol-1-yl)piperidine-1-carboxamide]",1673%
11,COCCCc1ccc2c(cnn2C2CCN(C(=O)N[C@H]3CC[C@H](OC)CC3)CC2)c1 [Example 32],430%
12,"COc1ccc2c(cnn2C2CCN(C(=O)NC3CCC(F)(F)CC3)CC2)c1 [Example 41, N-(4,4-difluorocyclohexyl)-4-(5-methoxy-1H-indazol-1-yl)piperidine-1-carboxamide]",3749%
13,"Cc1ccc2c(c1)c(C)nn2C1CCN(C(=O)NC2CCC(F)(F)CC2)CC1 [Example 45, N-(4,4-difluorocyclohexyl)-4-(3,5-dimethyl-1H-indazol-1-yl)piperidine-1-carboxamide]",1576%
14,"CC(C)Oc1ccc2c(cnn2C2CCN(C(=O)NC3CCCCC3)CC2)c1 [Example 48, N-cyclohexyl-4-(5-isopropoxy-1H-indazol-1-yl)piperidine-1-carboxamide]",1202%
15,"CCc1cccc2c1cnn2C1CCN(C(=O)NC2CCC(F)(F)CC2)CC1 [Example 64, N-(4,4-difluorocyclohexyl)-4-(4-ethyl-1H-indazol-1-yl)piperidine-1-carboxamide]",1133%
16,COCc1nn(C2CCN(C(=O)NC3CCCCC3)CC2)c2ccc(C)cc12 [Example 68],430%
17,CCCc1ccc2c(cnn2C2CCN(C(=O)NC3CCC(OC)CC3)CC2)c1 (stereo not drawn) [Example 76],420%

row,Structure (SMILES),α7PAM (%) @ 10 μmol/L
1,"Cc1ccc2c(cnn2C2CCN(C(=O)N[C@H]3CCCCC3(F)F)CC2)c1 [Example 79, (S)—N-(2,2-difluorocyclohexyl)-4-(5-methyl-1H-indazol-1-yl)piperidine-1-carboxamide]",1064%
2,"Cc1ccc2c(cnn2C2CCN(C(=O)N[C@H]3CCCC3(F)F)CC2)c1 [Example 80, (S)—N-(2,2-difluorocyclopentyl)-4-(5-methyl-1H-indazol-1-yl)piperidine-1-carboxamide]",1033%
3,Cc1ccc2c(cnn2C2CCN(C(=O)NC3CCC(OCC(F)(F)F)CC3)CC2)c1 (stereo not drawn) [Example 83],420%
4,"CCO[C@H]1CC[C@H](NC(=O)N2CCC(n3ncc4cc(C)ccc43)CC2)CC1 [Example 90, N-(trans-4-ethoxycyclohexyl)-4-(5-methyl-1H-indazol-1-yl)piperidine-1-carboxamide]",1467%
5,COC1CCC(NC(=O)N2CCC(n3ncc4c(Br)cccc43)CC2)CC1 (stereo not drawn) [Example 98],89%
6,O=C(C1CCOCC1)N1CCC(n2ncc3cc(F)ccc32)CC1 [Example 104],190%
7,CCc1ccc2c(cnn2C2CCN(C(=O)C3CCOCC3)CC2)c1 [Example 111],410%
8,CCc1ccc2c(cnn2[C@H]2CC[C@@H](NC(=O)[C@H]3CC[C@H](OC)CC3)CC2)c1 [Example 122],410%
9,CO[C@H]1CC[C@H](NC(=O)N2CCC(n3ncc4cc(-c5ccc(F)cc5)ccc43)CC2)CC1 [Example 155],210%
10,CCOc1cccc2c1cnn2C1CCN(C(=O)N[C@H]2CC[C@@H](OC)CC2)CC1 [Example 184],200%
11,O=C(Nc1ccc(C(F)(F)F)nc1)N1CCC(n2ncc3cc(C4CC4)ccc32)CC1 [Example 187],220%
12,O=C(NC1CCC(F)(F)CC1)N1CCC(n2ncc3c(OC(F)F)cccc32)CC1 [Example 201],370%
13,"CO[C@H]1CCC[C@H](NC(=O)N2CCC(n3ncc4cc(C5CC5)ccc43)CC2)C1 [Example 211, 4-(5-cyclopropyl-1H-indazol-1-yl)-N-[(1S,3S)-3-methoxycyclohexyl]piperidine-1-carboxamide]",1034%
14,COCc1c(C)ccc2c1cnn2C1CCN(C(=O)NC2CCC(F)(F)CC2)CC1 [Example 213],800%
15,CO[C@H]1CC[C@H](NC(=O)N2CCC(n3ncc4c(C)c(C)ccc43)CC2)CC1 [Example 225],480%
16,COC(C)c1c(C)ccc2c1cnn2C1CCN(C(=O)NC2CCC(F)(F)CC2)CC1 (stereo not drawn) [Example 232],860%
17,"O=C(NC1CCC(F)(F)CC1)N1CCC(n2ncc3cc(OC4CC4)ccc32)CC1 [Example 249, 4-[5-(cyclopropoxy)-1H-indazol-1-yl]-N-(4,4-difluorocyclohexyl)piperidine-1-carboxamide]",1463%
